For two compounds, IC50 results are on record in patent US8513423B2 (Janssen Pharmaceutica, NV, priority 2010, dated 2013).

Structures are written as SMILES.

For the assay, the target named is T1, purified wild type MGL (wt-MGLL 6H-11-313) (Homo sapiens, UniProt Q99685).
T1 construct: purified wild type MGL (wt-MGLL 6H-11-313)
T1 sequence (Q99685 1-303): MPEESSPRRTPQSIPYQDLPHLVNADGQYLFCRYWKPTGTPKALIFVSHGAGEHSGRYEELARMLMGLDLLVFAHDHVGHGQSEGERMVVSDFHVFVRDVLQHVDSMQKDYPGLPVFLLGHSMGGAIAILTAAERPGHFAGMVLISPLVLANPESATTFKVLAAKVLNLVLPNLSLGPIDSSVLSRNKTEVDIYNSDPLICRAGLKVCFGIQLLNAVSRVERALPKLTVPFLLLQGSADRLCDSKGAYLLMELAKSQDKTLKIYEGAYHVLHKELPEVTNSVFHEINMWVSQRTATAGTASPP
As to the kind of experiment: MGL enzyme activity assay (4MU-B cleavage), wild type MGL. The note with it: 10 μM 4MU-B, 5 nM enzyme, 37° C., read-out: MGL wild type inh IC50. The class given is biochemical. Summed up:
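Enzyme (5 nM final) cleaved 4MU-B (10 μM final) in 20 mM PIPES pH 7.0 with 150 mM NaCl and 0.001% Tween 20. Compounds were tested at 17 to 0.0003 μM final. Fluorescence (ex 335/em 440 nm) was monitored at 37° C for 5 min, and IC50 was fitted from fractional activity versus inhibitor concentration.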

A word on the IC50: it is the midpoint of a concentration-inhibition curve. With `O=C(c1nccs1)N1CCC(C2CN(C(=O)c3sc4cc(C(F)(F)F)ccc4c3Cl)C2)CC1` [Cpd 29, 4-(1-{[3-Chloro-6-(trifluoromethyl)-1-benzothiophen-2-yl]carbonyl}azetidin-3-yl)-1-(1,3-thiazol-2-ylcarbonyl)piperidine], the IC50 turned out to be 6 nM.
For `Cc1c(C(=O)N2CC(C3CCN(C(=O)c4nccs4)CC3)C2)sc2cc(C(F)(F)F)ccc12` [Cpd 20, 4-(1-{[3-Methyl-6-(trifluoromethyl)-1-benzothiophen-2-yl]carbonyl}azetidin-3-yl)-1-(1,3-thiazol-2-ylcarbonyl)piperidine], the IC50 was less than 5 nM.
